From US20070249710A1, “Biaromatic compounds and cosmetic/pharmaceutical applications thereof” (GALDERMA RESEARCH & DEVELOPMENT, priority 2004, published 2007)

Experiments:
[1] = target: T1, RARalpha (Homo sapiens, UniProt P10276); experiment: Transactivation test, HeLa reporter cells (RARalpha); type: cell-based
T1 sequence (P10276 183-417 limits assumed): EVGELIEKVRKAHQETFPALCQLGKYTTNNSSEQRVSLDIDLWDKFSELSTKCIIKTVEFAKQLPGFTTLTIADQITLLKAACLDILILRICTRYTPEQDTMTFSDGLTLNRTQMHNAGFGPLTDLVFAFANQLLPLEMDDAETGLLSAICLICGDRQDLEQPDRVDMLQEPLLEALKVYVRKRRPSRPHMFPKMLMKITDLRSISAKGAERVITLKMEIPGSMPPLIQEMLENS
Protocol: (§1) The activation of the receptors by an agonist (activator) in HeLa cells results in the expression of a reporter gene, luciferase, which, in the presence of a substrate, generates light. It is therefore possible to measure the activation of the receptors by quantifying the luminescence produced after incubation of the cells in the presence of a reference antagonist. The activator products displace the antagonist from its site, thus allowing activation of the receptor. The measurement of the activity is carried out by quantifying the increase in the light produced. This measurement makes it possible to determine the activating activity of the compound for use in the invention.
(§2) In this study, a constant which is the affinity of the molecule for the receptor is determined. Since this value can fluctuate depending on the basal activity and the expression of the receptor, it is designated apparent Kd (KdApp). […]
(§3) These cross curves make it possible to determine the AC50 values (concentration at which 50% activation is observed) for the reference ligand at various concentrations of product to be tested. These AC50 values are used to calculate the Schild regression by plotting a straight line corresponding to the Schild equation (“quantitation in receptor pharmacology”, Terry P. Kenakin, Receptors and Channels, 2001, 7, 371-385).
(§4) In the case of an agonist, the AC50 value (concentration that gives 50% of the activity) is calculated by plotting the curve of the product at the concentration of the reference ligand that gives 80% activation. The percentage activation which corresponds to the maximum level of activity obtained is also measured. […]
(§5) The culture medium is removed by turning the plates upside down and 100 μl of a 1:1 PBS (phosphate buffer solution)/luciferin mixture are added to each well. After 5 minutes, the plates are read with a luminescence reader.

[2] = target: T2, RARbeta (Homo sapiens, UniProt P10826); experiment: Transactivation test, HeLa reporter cells (RARbeta); type: cell-based
T2 sequence (P10826 183-417 limits assumed): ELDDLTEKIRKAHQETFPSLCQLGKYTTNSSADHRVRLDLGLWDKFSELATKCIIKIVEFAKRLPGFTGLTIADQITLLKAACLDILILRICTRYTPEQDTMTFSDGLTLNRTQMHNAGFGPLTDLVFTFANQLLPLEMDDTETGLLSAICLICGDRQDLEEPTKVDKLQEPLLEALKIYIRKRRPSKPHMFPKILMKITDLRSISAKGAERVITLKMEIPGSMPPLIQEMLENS
Protocol: as §1, §2, §3, §4, §5

[3] = target: T3, RARgamma (Homo sapiens, UniProt P13631); experiment: Transactivation test, HeLa reporter cells (RARgamma); type: cell-based; details: for specificity for RARgamma in comparison with RARalpha and RARbeta: transactivation test, in words
T3 sequence (P13631 185-419 limits assumed): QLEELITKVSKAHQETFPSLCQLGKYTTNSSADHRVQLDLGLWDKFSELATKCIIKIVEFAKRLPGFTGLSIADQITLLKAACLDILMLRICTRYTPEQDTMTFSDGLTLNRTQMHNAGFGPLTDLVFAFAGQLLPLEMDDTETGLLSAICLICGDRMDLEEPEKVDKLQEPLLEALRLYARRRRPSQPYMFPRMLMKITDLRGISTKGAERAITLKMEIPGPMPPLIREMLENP
Protocol: as §1
In this study, a constant which is the affinity of the molecule for the receptor is determined. Since this value can fluctuate depending on the basal activity and the expression of the receptor, it is designated apparent Kd (KdApp).
To determine this constant, “cross curves” for the product to be tested (2-hydroxy-4-[2-hydroxyimino-2-(5,5,8,8-tetramethyl-5,6,7,8-tetrahydronaphthalen-2-yl)ethoxy]benzoic acid), against a reference antagonist, otherwise called reference ligand, 4-(5,5-dimethyl-8-p-tolyl-5,6-dihydronaphthalen-2-ylethynyl)benzoic acid, are produced. The product to be tested is used at 10 concentrations and the reference antagonist at 7 concentrations. In each well (of a 96-well plate), the cells are in contact with one concentration of the product to be tested and one concentration of the reference antagonist.
Measurements are also carried out for the total agonist control, otherwise called 100% control (4-[2-(5,5,8,8-tetramethyl-5,6,7,8-tetrahydronaphthalen-2-yl)propenyl]benzoic acid), and the inverse agonist control, otherwise called 0% control, 4-{(E)-3-[4-(4-tert-butylphenyl)-5,5,8,8-tetramethyl-5,6,7,8-tetrahydronaphthalen-2-yl]-3-oxopropenyl}benzoic acid.
as §3
In the case of an agonist, the AC50 value (concentration that gives 50% of the activity) is calculated by plotting the curve of the product at the concentration of the reference ligand that gives 80% activation. The percentage activation which corresponds to the maximum level of activity obtained is also measured.
The HeLa cell lines used are stable transfectants containing the plasmids ERE-βGlob-Luc-SV-Neo (reporter gene) and RAR (α, β, γ) ER-DBD-puro. These cells are seeded into 96-well plates at a rate of 10,000 cells per well in 100 μl of DMEM medium without phenol red, supplemented with 10% of delipidized calf serum. The plates are then incubated at 37° C., 7% CO2 for 4 hours. […]
as §5

[4] = concentration that gives 50% of the activity, HeLa luciferase reporter

CC1(C)CCC(C)(C)c2cc(C(COc3ccc(C(=O)O)c(O)c3)=NO)ccc21 [Acid compound of the invention, 2-hydroxy-4-[2-hydroxyimino-2-(5,5,8,8-tetramethyl-5,6,7,8-tetrahydronaphthalen-2-yl)ethoxy]benzoic acid]
Kd ([1]; apparent Kd, Schild regression against reference antagonist, HeLa luciferase reporter, read-out: RARalpha Kdapp): 4060 nM
RARalpha % activation ([1]; at 10 μM, maximum level of activity): 100%
AC50 [1, 4]: 1700 nM
Kd ([2]; apparent Kd, Schild regression against reference antagonist, HeLa luciferase reporter, read-out: RARbeta Kdapp): 1030 nM
RARbeta % Activation ([2]; at 5 μM, maximum level of activity): 100%
AC50 [2, 4]: 600 nM
Kd ([3]; apparent Kd, Schild regression against reference antagonist, HeLa luciferase reporter, read-out: RARgamma Kdapp): 8 nM
RARgamma % activation ([3]; at 0.04 μM, maximum level of activity): 100%
AC50 [3, 4]: 9 nM
specificity for RARgamma in comparison with RARalpha and RARbeta ([3]; listed as 2-Hydroxy-4-[2-hydroxyimino-2-(5,5,8,8-tetramethyl-5,6,7,8-tetrahydronaphthalen-): selective agonist or activator of the RARgamma receptor
specificity for RARgamma in comparison with RARalpha and RARbeta ([3]; listed as 2-hydroxy-4-[2-hydroxyimino-2-(5,5,8,8-tetramethyl-5,6,7,8-tetrahydronaphthalen-): great specificity for the receptor subtype RARgamma

CC(C)COC(=O)c1ccc(OCC(=NO)c2ccc3c(c2)C(C)(C)CCC3(C)C)cc1O [Example 3, isobutyl 2-hydroxy-4-[2-hydroxyimino-2-(5,5,8,8-tetramethyl-5,6,7,8-tetrahydronaphthalen-2-yl)ethoxy]benzoate]
melting point: 96 °C

CCOC(=O)c1ccc(OCC(=NO)c2ccc3c(c2)C(C)(C)CCC3(C)C)cc1O [Example 1, ethyl 2-hydroxy-4-[2-hydroxyimino-2-(5,5,8,8-tetramethyl-5,6,7,8-tetrahydronaphthalen-2-yl)ethoxy]benzoate]
melting point: 130 °C

CC(C)OC(=O)c1ccc(OCC(=NO)c2ccc3c(c2)C(C)(C)CCC3(C)C)cc1O [Example 2, isopropyl 2-hydroxy-4-[2-hydroxyimino-2-(5,5,8,8-tetramethyl-5,6,7,8-tetrahydronaphthalen-2-yl)ethoxy]benzoate]
melting point: 130 °C
